According to patent publication US10183944B2 (Asana Biosciences, LLC, priority 2011, dated 2019):

Columns and labels:
[1] = biological target: Syk (356-635 amino acids) catalytic domain (Homo sapiens (Human), UniProt P43405); test: Inhibition of enzymatic Syk kinase activity (radiometric); format: biochemical; details: read-out: IC50 Syk
How it was run: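 Human Syk (356-635) kinase domain (0.035–7.5 ng/reaction) preincubated with compound 30 minutes at room temperature, then reacted with pG4T substrate, 100 μM ATP (stock) and γ-32P-ATP for 10 minutes at 30° C. Reaction stopped with HCl/ATP, spotted on P81 paper, washed and counted by scintillation. Percent inhibition versus no-compound counts.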

JAK2 = JAK2 (Homo sapiens (Human), UniProt O60674); test: Inhibition of enzymatic JAK2 kinase activity (TR-FRET); format: biochemical; details: read-out: IC50 JAK
Sequence of JAK2 (O60674 808-1132): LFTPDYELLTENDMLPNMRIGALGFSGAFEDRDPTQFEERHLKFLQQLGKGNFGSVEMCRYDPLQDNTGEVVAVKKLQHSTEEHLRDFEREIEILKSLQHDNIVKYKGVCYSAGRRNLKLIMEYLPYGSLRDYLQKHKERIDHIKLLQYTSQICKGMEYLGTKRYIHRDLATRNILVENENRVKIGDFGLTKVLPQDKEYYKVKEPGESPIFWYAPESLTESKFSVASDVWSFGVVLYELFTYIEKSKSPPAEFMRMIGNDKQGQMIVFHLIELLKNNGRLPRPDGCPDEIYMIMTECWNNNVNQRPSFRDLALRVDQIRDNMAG
How it was run: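 Enzyme preincubated with compound 30 min at RT, then Ulight-poly-GT substrate and ATP added for 60 min at RT. EDTA stop, Eu-antiphosphotyrosine antibody; TR-FRET ratio 665/615 nm (ex 340 nm), blank-corrected; % inhibition versus positive control.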

| IC50 [1] [µM] | IC50 (JAK2) [µM] | SMILES |
| --- | --- | --- |
| < 0.05 | < 0.01 | CC(C)(O)C(=O)N1CCN(c2ccc(Nc3nc(N4CCCCCC4)nc4cn[nH]c(=O)c34)cn2)CC1 [Example 238, 2-(azepan-1-yl)-4-((6-(4-(2-hydroxy-2-methylpropanoyl)piperazin-1-yl)pyridin-3-yl)amino)pyrimido[4,5-d]pyridazin-5(6H)-one] |
| < 0.1 | < 0.05 | O=c1[nH]ncc2nc(N3CCCCCC3)nc(Nc3ccc(OCCN4CCN(CCO)CC4)cc3)c12 [Example 239, 2-(azepan-1-yl)-4-((4-(2-(4-(2-hydroxyethyl)piperazin-1-yl)ethoxy)phenyl)amino)pyrimido[4,5-d]pyridazin-5(6H)-one] |
| < 0.05 | < 0.01 | N#CCC(=O)N1CCN(c2ccc(Nc3nc(N4CCC(CC#N)CC4)nc4cn[nH]c(=O)c34)cc2)CC1 [Example 240, 3-(4-(4-((2-(4-(cyanomethyl)piperidin-1-yl)-5-oxo-5,6-dihydropyrimido[4,5-d]pyridazin-4-yl)amino)phenyl)piperazin-1-yl)-3-oxopropanenitrile] |
| < 0.05 | < 0.05 | CN1CCN(c2ccc(Nc3nc(N4CCCCCC4)nc4cn[nH]c(=O)c34)cn2)CC1 [Example 242, 2-(azepan-1-yl)-4-((6-(4-methylpiperazin-1-yl)pyridin-3-yl)amino)pyrimido[4,5-d]pyridazin-5(6H)-one] |
| < 0.05 | < 0.05 | CN1CCN(c2ccc(Nc3nc(N4CCC(CC#N)CC4)nc4cn[nH]c(=O)c34)cn2)CC1 [Example 243, 2-(1-(4-((6-(4-methylpiperazin-1-yl)pyridin-3-yl)amino)-5-oxo-5,6-dihydropyrimido[4,5-d]pyridazin-2-yl)piperidin-4-yl)acetonitrile] |
| < 0.05 | < 0.05 | N#CCC1CCN(c2nc(Nc3ccc(-c4nn[nH]n4)cc3)c3c(=O)[nH]ncc3n2)CC1 [Example 245, 2-(1-(4-((4-(2H-tetrazol-5-yl)phenyl)amino)-5-oxo-5,6-dihydropyrimido[4,5-d]pyridazin-2-yl)piperidin-4-yl)acetonitrile] |
| < 0.01 | < 0.01 | N#CCC1CCN(c2nc(Nc3ccc(N4CCC(Cc5nn[nH]n5)CC4)cc3)c3c(=O)[nH]ncc3n2)CC1 [Example 246, 2-(1-(4-((4-(4-((2H-tetrazol-5-yl)methyl)piperidin-1-yl)phenyl)amino)-5-oxo-5,6-dihydropyrimido[4,5-d]pyridazin-2-yl)piperidin-4-yl)acetonitrile] |
| < 0.01 | < 0.01 | CN1CCN(c2ccc(Nc3nc(N4CCCCCC4)nc4cn[nH]c(=O)c34)cc2)CC1 [Example 247, 2-(azepan-1-yl)-4-((4-(4-methylpiperazin-1-yl)phenyl)amino)pyrimido[4,5-d]pyridazin-5(6H)-one] |
| < 0.05 | < 0.01 | N#CCC1CCN(c2nc(Nc3ccc(N4CCCC(CC(=O)O)C4)cc3)c3c(=O)[nH]ncc3n2)CC1 (centres unmarked) [Example 250, 2-(1-(4-((2-(4-(cyanomethyl)piperidin-1-yl)-5-oxo-5,6-dihydropyrimido[4,5-d]pyridazin-4-yl)amino)phenyl)piperidin-3-yl)acetic acid] |
| < 0.05 | < 0.01 | N#CCC1CCN(c2nc(Nc3ccc(N4CCC(Cc5nn[nH]n5)CC4)nc3)c3c(=O)[nH]ncc3n2)CC1 [Example 253, 2-(1-(4-((6-(4-((2H-tetrazol-5-yl)methyl)piperidin-1-yl)pyridin-3-yl)amino)-5-oxo-5,6-dihydropyrimido[4,5-d]pyridazin-2-yl)piperidin-4-yl) acetonitrile] |
| < 0.05 | < 0.01 | COCCN1CCN(c2ccc(Nc3nc(N4CCCCCC4)nc4cn[nH]c(=O)c34)cc2)CC1 [Example 255, 2-(azepan-1-yl)-4-((4-(4-(2-methoxyethyl)piperazin-1-yl)phenyl)amino) pyrimido[4,5-d]pyridazin-5(6H)-one] |
| < 0.05 | < 0.05 | O=c1[nH]ncc2nc(N3CCCCCC3)nc(Nc3ccc(N4CCN(CCCO)CC4)cc3)c12 [Example 260, 2-(azepan-1-yl)-4-((4-(4-(3-hydroxypropyl)piperazin-1-yl)phenyl)amino)pyrimido[4,5-d]pyridazin-5(6H)-one] |
| < 0.05 | < 0.01 | N#CCC1CCN(c2nc(Nc3ccc(OC4CCN(CC(=O)O)CC4)cc3)c3c(=O)[nH]ncc3n2)CC1 [Example 262, 2-(4-(4-((2-(4-(cyanomethyl)piperidin-1-yl)-5-oxo-5,6-dihydropyrimido[4,5-d]pyridazin-4-yl)amino)phenoxy)piperidin-1-yl)acetic acid] |
| < 0.01 | < 0.01 | O=c1[nH]ncc2nc(N3CCCCCC3)nc(Nc3ccc(N4CCCN(CCO)CC4)cc3)c12 [Example 263, 2-(azepan-1-yl)-4-((4-(4-(2-hydroxyethyl)-1,4-diazepan-1-yl)phenyl)amino) pyrimido[4,5-d]pyridazin-5(6H)-one] |
| < 0.05 | < 0.01 | O=c1[nH]ncc2nc(N3CCCCCC3)nc(Nc3ccc(N4CCCC(CCO)C4)cc3)c12 (centres unmarked) [Example 272, 2-(azepan-1-yl)-4-((4-(3-(2-hydroxyethyl)piperidin-1-yl)phenyl)amino) pyrimido[4,5-d]pyridazin-5(6H)-one] |
| < 0.05 | < 0.01 | O=c1[nH]ncc2nc(N3CCCCCC3)nc(Nc3ccc(N4CCCC(O)C4)cc3)c12 (centres unmarked) [Example 281, 2-(azepan-1-yl)-4-((4-(3-hydroxypiperidin-1-yl)phenyl)amino) pyrimido[4,5-d]pyridazin-5(6H)-one] |
| < 0.05 | < 0.01 | N#CCC1CCN(c2nc(Nc3ccc(N4CCCC(O)C4)cc3)c3c(=O)[nH]ncc3n2)CC1 (centres unmarked) [Example 282, 2-(1-(4-((4-(3-hydroxypiperidin-1-yl)phenyl)amino)-5-oxo-5,6-dihydropyrimido[4,5-d]pyridazin-2-yl)piperidin-4-yl)acetonitrile] |
| < 0.05 | < 0.05 | O=c1[nH]ncc2nc(N3CCCCCC3)nc(Nc3ccc(N4CCCC(CO)C4)cc3)c12 (centres unmarked) [Example 285, 2-(azepan-1-yl)-4-((4-(3-(hydroxymethyl)piperidin-1-yl)phenyl)amino) pyrimido[4,5-d]pyridazin-5(6H)-one] |
| < 0.05 | < 0.05 | N#CCC1CCN(c2nc(Nc3ccc(N4CCCC(CCO)C4)cc3)c3c(=O)[nH]ncc3n2)CC1 (centres unmarked) [Example 286, 2-(1-(4-((4-(3-(2-hydroxyethyl)piperidin-1-yl)phenyl)amino)-5-oxo-5,6-dihydropyrimido[4,5-d]pyridazin-2-yl)piperidin-4-yl)acetonitrile] |
| < 0.05 | < 0.05 | COC1CCN(c2ccc(Nc3nc(N4CCCCCC4)nc4cn[nH]c(=O)c34)cc2)CC1 [Example 288, 2-(azepan-1-yl)-4-((4-(4-methoxypiperidin-1-yl)phenyl)amino) pyrimido[4,5-d]pyridazin-5(6H)-one] |
| < 0.05 | < 0.01 | O=c1[nH]ncc2nc(N3CCCCCC3)nc(Nc3ccc(N4CCC(F)CC4)cc3)c12 [Example 289, 2-(azepan-1-yl)-4-((4-(4-fluoropiperidin-1-yl)phenyl)amino)pyrimido[4,5-d]pyridazin-5(6H)-one] |
| < 0.05 | < 0.05 | N#CCC1CCN(c2nc(Nc3ccc(OC4CCN(CCO)CC4)cc3)c3c(=O)[nH]ncc3n2)CC1 [Example 291, 2-(1-(4-((4-((1-(2-hydroxyethyl)piperidin-4-yl)oxy)phenyl)amino)-5-oxo-5,6-dihydropyrimido[4,5-d]pyridazin-2-yl)piperidin-4-yl)acetonitrile] |
| < 0.1 | < 0.05 | N#CCC1CCN(c2nc(Nc3ccc(OCCO)cc3)c3c(=O)[nH]ncc3n2)CC1 [Example 293, 2-(1-(4-((4-(2-hydroxyethoxy)phenyl)amino)-5-oxo-5,6-dihydropyrimido[4,5-d]pyridazin-2-yl)piperidin-4-yl) acetonitrile] |
| < 0.05 | < 0.05 | O=c1[nH]ncc2nc(N3CCCCCC3)nc(Nc3ccc(OCCO)cc3)c12 [Example 294, 2-(azepan-1-yl)-4-((4-(2-hydroxyethoxy)phenyl)amino)pyrimido[4,5-d]pyridazin-5(6H)-one] |

| SMILES | IC50 [1] [µM] | IC50 (JAK2) [µM] |
| --- | --- | --- |
| O=c1[nH]ncc2nc(N3CCCCCC3)nc(Nc3ccc(N4CCC(Cc5nn[nH]n5)CC4)nc3)c12 [Example 252, 4-((6-(4-((2H-tetrazol-5-yl)methyl)piperidin-1-yl)pyridin-3-yl)amino)-2-(azepan-1-yl)pyrimido[4,5-d]pyridazin-5(6H)-one] | < 0.05 | < 0.01 |
| CCN1CCN(C(=O)COc2ccc(Nc3nc(N4CCCCCC4)nc4cn[nH]c(=O)c34)cc2)CC1 [Example 269, 2-(azepan-1-yl)-4-((4-(2-(4-ethylpiperazin-1-yl)-2-oxoethoxy)phenyl)amino)pyrimido[4,5-d]pyridazin-5(6H)-one] | < 0.05 | < 0.05 |
| CCN1CCN(C(=O)COc2ccc(Nc3nc(N4CCC(CC#N)CC4)nc4cn[nH]c(=O)c34)cc2)CC1 [Example 270, 2-(1-(4-((4-(2-(4-ethylpiperazin-1-yl)-2-oxoethoxy)phenyl)amino)-5-oxo-5,6-dihydropyrimido[4,5-d]pyridazin-2-yl)piperidin-4-yl)acetonitrile] | < 0.05 | < 0.05 |
| CN1CCN(C(=O)COc2ccc(Nc3nc(N4CCC(CC#N)CC4)nc4cn[nH]c(=O)c34)cc2)CC1 [Example 271, 2-(1-(4-((4-(2-(4-methylpiperazin-1-yl)-2-oxoethoxy)phenyl)amino)-5-oxo-5,6-dihydropyrimido[4,5-d]pyridazin-2-yl)piperidin-4-yl)acetonitrile] | < 0.01 | < 0.05 |
